Assay results: US20210008012A1, “NOVEL APPLICATIONS OF DISULFIRAM AND DERIVATIVES THEREOF” (GENEHEAL BIOTECHNOLOGY CO., LTD., priority 2017, published 2021)

Test system: PAICS
Assay: Animal experiments: inhibition of SAICAR accumulation
Type: in vivo
Settings: "can reach"
Source text: By inhibiting the activity of PAICS, the accumulation of toxic compound […] is reduced, which proves that the compound disulfiram can effectively treat rare disease ADSL deficiency.

## CCN(CC)C(=S)SSC(=S)N(CC)CC [disulfiram, Disulfiram]
  inhibition ratio against SAICAR accumulation: 87.11%
